This note sets out measurements from ChEMBL document CHEMBL5233261, “Recent accomplishments on the synthetic/biological facets of pharmacologically active 1H-1,2,3-triazoles” (Eur J Med Chem, 2021).

Assay [1] concerns MCF7. In words: Anticancer activity against human MCF7 cells assessed as cell growth inhibition incubated for 24 hrs by MTT assay. The format is functional, cell-based. The conditions noted are these: MCF7, 24 h. (Tetrazolium assays rely on reduction of a dye to a coloured formazan, in cell work by metabolically active cells.)
Assay [2] deals with Escherichia coli. In words: Antibacterial activity against Escherichia coli assessed as bacterial growth inhibition. In kind it is functional.
For assay [3], the system named is Bacillus subtilis. Put plainly: Antibacterial activity against Bacillus subtilis assessed as bacterial growth inhibition. In kind it is functional.
The test system of assay [4] is Pseudomonas aeruginosa. In words: Antibacterial activity against Pseudomonas aeruginosa assessed as bacterial growth inhibition. The format is functional.
For assay [5], the system named is Aspergillus niger. Put plainly: Antifungal activity against Aspergillus niger assessed as […] growth inhibition. The format is functional.
The subject of assay [6] is Staphylococcus epidermidis. Put plainly: Antibacterial activity against Staphylococcus epidermidis assessed as bacterial growth inhibition. The format is functional.
Assay [7] relates to Candida albicans. In words: Antifungal activity against Candida albicans assessed as […] growth inhibition. In kind it is functional.
Assay [8] deals with Mycobacterium tuberculosis. In words: Antibacterial activity against Mycobacterium tuberculosis H37Rv ATCC 27294 strain assessed as bacterial growth inhibition by MABA Assay. In kind it is functional.
Assay [9] deals with MCF7. Put plainly: Anticancer activity against human MCF7 cells assessed as cell growth inhibition incubated for 24 hrs by ELISA assay. In kind it is functional, cell-based. The settings on record: MCF7, 24 h. A general note: ELISA stands for enzyme-linked immunosorbent assay.
Assay [10] relates to Plasmodium falciparum. In words: Antimalarial activity against Plasmodium falciparum 3D7 strain by MSF assay. The format is functional, organism-based.
Assay [11] has as its system MDA-MB-231. Put plainly: Anticancer activity against human MDA-MB-231 cells assessed as cell growth inhibition by MTT assay. The format is functional, cell-based.
The subject of assay [12] is HEK293. In words: Anticancer activity against human HEK293 cells assessed as cell growth inhibition by MTT assay. In kind it is functional.
The test system of assay [13] is MCF7. In words: Anticancer activity against human MCF7 cells assessed as cell growth inhibition by MTT assay. In kind it is functional, cell-based.
For assay [14], the system named is MIA PaCa-2. In words: Anticancer activity against human MIA PaCa-2 cells assessed as cell growth inhibition incubated for 48 hrs by SRB assay. In kind it is functional, cell-based. The conditions noted are these: MIA PaCa-2, 48 h. In general terms: The SRB assay estimates cell density from bound dye.
The test system of assay [15] is HeLa. In words: Anticancer activity against human HeLa cells assessed as cell growth inhibition incubated for 48 hrs by SRB assay. In kind it is functional, cell-based.
The subject of assay [16] is Pseudomonas aeruginosa. In words: Antibacterial activity against Pseudomonas aeruginosa assessed as bacterial growth inhibition incubated for 12 hrs by well plate assay. In kind it is functional.
Assay [17] deals with Staphylococcus epidermidis. Put plainly: Antibacterial activity against Staphylococcus epidermidis assessed as bacterial growth inhibition incubated for 12 hrs by well plate assay. In kind it is functional.
Assay [18] concerns Klebsiella pneumoniae. In words: Antibacterial activity against Klebsiella pneumoniae assessed as bacterial growth inhibition incubated for 12 hrs by well plate assay. In kind it is functional.
For assay [19], the system named is Staphylococcus aureus. Put plainly: Antibacterial activity against Staphylococcus aureus assessed as bacterial growth inhibition incubated for 12 hrs by well plate assay. In kind it is functional.
In assay [20] the test system is Mycobacterium tuberculosis. Put plainly: Antibacterial activity against Mycobacterium tuberculosis H37Rv MTCC 200 strain assessed as bacterial growth inhibition. In kind it is functional.
Assay [21] concerns Mycobacterium tuberculosis. Put plainly: Antibacterial activity against Mycobacterium tuberculosis H37Rv strain assessed as bacterial growth inhibition by MABA Assay. In kind it is functional, organism-based.
Assay [22] deals with MCF7. Put plainly: Potency index, ratio of Tamoxifen IC50 to test compound IC50 for cytotoxicity against human MCF7 cells by MTT assay. In kind it is functional.
The test system of assay [23] is HeLa. In words: Anticancer activity against human HeLa cells assessed as cell growth inhibition incubated for 48 hrs by MTT assay. The format is functional, cell-based.
Assay [24] deals with Mycobacterium tuberculosis. In words: Antibacterial activity against Mycobacterium tuberculosis H37Ra ATCC 25177 assessed as bacterial growth inhibition by XTT Reduction Menadione Assay. The format is functional.
Setting [25] is: Escherichia coli, read-out: MIC.
Where [26] appears, read: Pseudomonas aeruginosa, read-out: MIC.

Values after ≈ are worked out from the molar mass of the structure shown. Values joined by “and” are separate entries in the source; they are usually repeats but may differ in a detail not shown here. Identical values can stand only once.

As to `O=C1C(=O)N(CCCn2cc(COCCOc3ccc(/C(=C(/CCCl)c4ccccc4)c4ccccc4)cc3)nn2)c2c(Br)cc(Br)cc21`, the concentration for half-maximal inhibition (IC50) (usually the point on the concentration scale where inhibition reaches its midpoint) in [1] is 16.5 µM.

For `Cc1cc(O)c(C(=O)/C=C/c2ccc(OCc3cn(Cc4ccc(Br)cc4)nn3)cc2)c(=O)o1`, the MIC in [2] (setting [25]) turned out to be 3 µM; in assay [3] (Bacillus subtilis, read-out: MIC), 3 µM (≈ 1.57 µg/mL); in [4] (setting [26]), 3 µM; in assay [5] (Aspergillus niger, read-out: MIC), 3 µM (≈ 1.57 µg/mL); in assay [6] (Staphylococcus epidermidis, read-out: MIC), 3 µM (≈ 1.57 µg/mL); in assay [7] (Candida albicans, read-out: MIC) it was 3 µM (≈ 1.57 µg/mL).

Regarding `COc1ccc2nc(Cl)c(C(=O)NCc3cn(Cc4ccc(C#N)cc4)nn3)cc2c1`, the MIC in [8] is 1.6 µg/mL (≈ 3.7 µM).

`O=C1C(=O)N(CCCCn2cc(COCCOc3ccc(/C(=C(/CCCl)c4ccccc4)c4ccccc4)cc3)nn2)c2c(Br)cc(Br)cc21`: in [1], the IC50 stood at 11 µM.

Consider `COc1cc2ncnc(Nc3ccc(Cn4cc(-c5ccccc5)nn4)cc3)c2cc1OC`, for which, in assay [9], the concentration for half-maximal inhibition (IC50) was determined as 20.7 µM.

For the compound `[N-]=[N+]=NCC(=O)NCCNc1ccnc2cc(Cl)ccc12`, the midpoint of inhibition in [10], the IC50, lay at 0.0387 µM.

Turning to `O=C1C(=O)N(Cc2cn(CC/C(=C(\c3ccccc3)c3ccc(OCCO)cc3)c3ccccc3)nn2)c2c(Br)cc(Br)cc21`, the values for the IC50 in [11], in assay [12] and in [13] were 19.2 µM, over 100 µM and 31.6 µM, respectively.

Turning to `COc1ccc2cccc(-c3cn(CCCOC(=O)C4=C(Cl)c5cc(C)c(C)cc5CCC4)nn3)c2c1`, the IC50 was under 0.01 µM in assay [14] and 1.61 µM in [15].

In the case of `COc1ccc2nc(Cl)c(C(=O)NCc3cn(C(=O)c4ccc(F)cc4)nn3)cc2c1`, the MIC in assay [2] (setting [25]) and in [4] (setting [26]) was 6.25 µg/mL throughout.

Regarding `COc1ccccc1/N=C/c1c(OCc2cn(CCC[Si]34OCCN(CCO3)CCO4)nn2)ccc2ccccc12`, the MIC was 106 µg/mL (≈ 185 µM) in assay [16], 26.5 µg/mL (≈ 46.2 µM) in [17], 106 µg/mL (≈ 185 µM) in assay [18] and 26.5 µg/mL (≈ 46.2 µM) in assay [19].

In the case of `O=C(Cn1cc(-c2cccc(F)c2)nn1)Nc1ccc(F)cc1`, the MIC in assay [2], in assay [3], in assay [4], in assay [5], in [6] and in assay [7] was 0.0199 umol/cm3 in each case.

For `O=C(Cn1cc(-c2ccccc2)nn1)Nc1ccccc1`, in assay [20], the MIC was determined as 0.0898 umol/cm3.

Turning to `O=c1c(Cn2cc(CCCCCCCCCCCCCCCO)nn2)coc2ccccc12`, the IC50 in [21] stood at 1.56 µg/mL (≈ 3.44 µM).

For the compound `COc1ccc2nc(Cl)c(C(=O)NCc3cn(Cc4ccccc4)nn3)cc2c1`, in assay [8], the MIC came to 1.6 µg/mL (≈ 3.92 µM).

Consider `O=C1C(=O)N(CCn2cc(COCCOc3ccc(/C(=C(/CCCl)c4ccccc4)c4ccccc4)cc3)nn2)c2c(Br)cc(Br)cc21`, for which, in assay [22], the “Ratio IC50” value is on record as 30.

As for `COc1ccc2nc(Cl)c(C(=O)NCc3cn(CC(=O)c4ccc(F)cc4)nn3)cc2c1`, the MIC in assay [8] was determined as 1.6 µg/mL (≈ 3.53 µM).

Consider `Cc1ccc(Cn2cc(CN3C(=O)C4(C(C#N)=C(N)Oc5cc6c(cc54)[nH]c4ccccc46)c4cc(F)ccc43)nn2)cc1` (stereo unspecified), for which the concentration for half-maximal inhibition (IC50) in assay [23] came out at 3.35 µM.

For the compound `CC(=O)Nc1ccc(N2C=C(C(c3c[nH]c4ccc(Br)cc34)c3c[nH]c4ccc(Br)cc34)NN2)cc1`, in assay [24], the MIC is 3 µg/mL and 1 µg/mL.

Take `COc1ccc(Cn2cc(CNC(=O)c3cc4cc(OC)ccc4nc3Cl)nn2)cc1`: in assay [8], the MIC was determined as 1.6 µg/mL (≈ 3.65 µM).
